The values below are quoted from earlier work in patent US9005185B2, “Nanochanneled device and related methods” (The Board of Regents of the University of Texas System, priority 2008, dated 2015).

In this data set the target is T1, Aromatase (Homo sapiens, UniProt P11511).
T1 sequence (P11511 1-503): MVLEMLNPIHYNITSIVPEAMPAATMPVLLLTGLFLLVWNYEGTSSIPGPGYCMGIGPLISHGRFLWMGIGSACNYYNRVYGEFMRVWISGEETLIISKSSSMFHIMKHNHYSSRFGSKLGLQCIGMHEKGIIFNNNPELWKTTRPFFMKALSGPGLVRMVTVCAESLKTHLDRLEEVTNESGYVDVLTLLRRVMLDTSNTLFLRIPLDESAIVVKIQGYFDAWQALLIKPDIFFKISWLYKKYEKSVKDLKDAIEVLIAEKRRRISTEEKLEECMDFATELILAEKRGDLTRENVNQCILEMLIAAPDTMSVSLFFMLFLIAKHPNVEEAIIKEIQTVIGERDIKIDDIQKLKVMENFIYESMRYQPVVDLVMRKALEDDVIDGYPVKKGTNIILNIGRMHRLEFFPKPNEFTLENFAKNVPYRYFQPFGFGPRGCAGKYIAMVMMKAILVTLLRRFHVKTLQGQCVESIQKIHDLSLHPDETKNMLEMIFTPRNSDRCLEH

In the case of `N#Cc1ccc(C(c2ccc(C#N)cc2)n2cncn2)cc1` [letrozole], the inhibits estrogen biosynthesis result is “approximately 99%”.
